Experimental data reported in patent publication US20230085307A1, “PYRIDAZINONE COMPOUND AND HERBICIDE” (NISSAN CHEMICAL CORPORATION, priority 2019, published 2023).

What was measured:
[1] = test system: Italian ryegrass; assay: Test Example 5: herbicidal effect by foliage application, plastic box (Table 20, symbol K); format: in vivo, Italian ryegrass (Lolium multiflorum); details: foliage application, 320 g/ha, three weeks after application
Procedure, shortened: (§1)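 Plants were sown into sterilized diluvial soil under about 1.5 cm cover and kept in a greenhouse at 25° C. to 30° C. Fourteen days on, foliage received an even spray of the diluted emulsion. Herbicidal or crop effect was judged three weeks afterwards.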

[2] = test system: southern crabgrass; assay: Test Example 5: herbicidal effect by foliage application, plastic box (Table 20, symbol F); format: in vivo, southern crabgrass (Digitaria ciliaris); details: foliage application, 320 g/ha, three weeks after application
Procedure, shortened: as §1

[3] = test system: barnyard grass; assay: Test Example 5: herbicidal effect by foliage application, plastic box (Table 20, symbol H); format: in vivo, barnyard grass (Echinochloa crus-galli); details: foliage application, 320 g/ha, three weeks after application
Procedure, shortened: as §1

[4] = test system: oval-leafed pondweed; assay: Test Example 1: herbicidal activity, application before weed generation under submerged conditions (Table 16, symbol C); format: in vivo, oval-leafed pondweed (Monochoria vaginalis); details: 320 g/ha applied herbicide
Procedure, shortened: (§2)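 Alluvial soil was flooded to 4 cm depth, weed seeds were sown mixed and 2.5-leaf rice seedlings were transplanted. On sowing day, the compound's emulsion, diluted in water to a set dose, was applied to the water surface. Plants grew at 25–30 °C and were scored 0–5 after three weeks.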

[5] = test system: wild oat; assay: Test Example 4: herbicidal effect by soil treatment (Table 19, symbol I); format: in vivo, wild oat (Avena fatua); details: amount of applied herbicide 320 g/ha
Procedure, shortened: (§3)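 Pre-emergence style soil spray: seeds under ~1.5 cm sterilized diluvial soil received a uniform coat of emulsion diluted to the predetermined herbicide amount. Greenhouse 25–30° C; readout at week three on previously defined criteria.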

[6] = test system: blackgrass; assay: Test Example 4: herbicidal effect by soil treatment (Table 19, symbol J); format: in vivo, blackgrass (Alopecurus myosuroides); details: amount of applied herbicide 320 g/ha
Procedure, shortened: as §3

[7] = test system: Japanese bulrush; assay: Test Example 1: herbicidal activity, application before weed generation under submerged conditions (Table 16, symbol B); format: in vivo, Japanese bulrush (Schoenoplectus juncoides); details: 320 g/ha applied herbicide
Procedure, shortened: as §2

[8] = test system: persian speedwell; assay: Test Example 4: herbicidal effect by soil treatment (Table 19, symbol R); format: in vivo, Persian speedwell (Veronica persica); details: amount of applied herbicide 320 g/ha
Procedure, shortened: as §3

[9] = test system: lambsquarters; assay: Test Example 4: herbicidal effect by soil treatment (Table 19, symbol O); format: in vivo, lambsquarters (Chenopodium album); details: amount of applied herbicide 320 g/ha
Procedure, shortened: as §3

[10] = test system: barnyard grass; assay: Test Example 3: herbicidal effect by foliage application, Wagner pot (Table 18, symbol H); format: in vivo, barnyard grass (Echinochloa crus-galli); details: 320 g/ha
Procedure, shortened: (§4)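 Plants were sown in alluvial soil held under 0.1–0.5 cm standing water and grown 14 days in a greenhouse at 25–30 °C. An emulsifiable formulation, water-diluted to the set dose, was then sprayed onto the foliage, and effects were scored three weeks later using previously defined criteria.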

[11] = test system: redroot pigweed; assay: Test Example 5: herbicidal effect by foliage application, plastic box (Table 20, symbol N); format: in vivo, redroot pigweed (Amaranthus retroflexus); details: foliage application, 320 g/ha, three weeks after application
Procedure, shortened: as §1

[12] = test system: velvetleaf; assay: Test Example 4: herbicidal effect by soil treatment (Table 19, symbol M); format: in vivo, velvetleaf (Abutilon theophrasti); details: amount of applied herbicide 320 g/ha
Procedure, shortened: as §3

[13] = test system: false cleavers; assay: Test Example 5: herbicidal effect by foliage application, plastic box (Table 20, symbol Q); format: in vivo, false cleavers (Galium spurium); details: foliage application, 320 g/ha, three weeks after application
Procedure, shortened: as §1

[14] = test system: velvetleaf; assay: Test Example 5: herbicidal effect by foliage application, plastic box (Table 20, symbol M); format: in vivo, velvetleaf (Abutilon theophrasti); details: foliage application, 320 g/ha, three weeks after application
Procedure, shortened: as §1

[15] = test system: wild oat; assay: Test Example 5: herbicidal effect by foliage application, plastic box (Table 20, symbol I); format: in vivo, wild oat (Avena fatua); details: foliage application, 320 g/ha, three weeks after application
Procedure, shortened: as §1

[16] = test system: chickweed; assay: Test Example 4: herbicidal effect by soil treatment (Table 19, symbol P); format: in vivo, common chickweed (Stellaria media); details: amount of applied herbicide 320 g/ha
Procedure, shortened: as §3

[17] = test system: false cleavers; assay: Test Example 4: herbicidal effect by soil treatment (Table 19, symbol Q); format: in vivo, false cleavers (Galium spurium); details: amount of applied herbicide 320 g/ha
Procedure, shortened: as §3

[18] = test system: windgrass; assay: Test Example 4: herbicidal effect by soil treatment (Table 19, symbol L); format: in vivo, windgrass (Apera spica-venti); details: amount of applied herbicide 320 g/ha
Procedure, shortened: as §3

[19] = test system: windgrass; assay: Test Example 5: herbicidal effect by foliage application, plastic box (Table 20, symbol L); format: in vivo, windgrass (Apera spica-venti); details: foliage application, 320 g/ha, three weeks after application
Procedure, shortened: as §1

[20] = test system: barnyard grass; assay: Test Example 4: herbicidal effect by soil treatment (Table 19, symbol H); format: in vivo, barnyard grass (Echinochloa crus-galli); details: amount of applied herbicide 320 g/ha
Procedure, shortened: as §3

[21] = test system: persian speedwell; assay: Test Example 5: herbicidal effect by foliage application, plastic box (Table 20, symbol R); format: in vivo, Persian speedwell (Veronica persica); details: foliage application, 320 g/ha, three weeks after application
Procedure, shortened: as §1

[22] = test system: rice flat sedge; assay: Test Example 3: herbicidal effect by foliage application, Wagner pot (Table 18, symbol E); format: in vivo, rice flat sedge (Cyperus iria); details: 320 g/ha
Procedure, shortened: as §4

[23] = test system: blackgrass; assay: Test Example 5: herbicidal effect by foliage application, plastic box (Table 20, symbol J); format: in vivo, blackgrass (Alopecurus myosuroides); details: foliage application, 320 g/ha, three weeks after application
Procedure, shortened: as §1

[24] = test system: Italian ryegrass; assay: Test Example 4: herbicidal effect by soil treatment (Table 19, symbol K); format: in vivo, Italian ryegrass (Lolium multiflorum); details: amount of applied herbicide 320 g/ha
Procedure, shortened: as §3

[25] = test system: green foxtail; assay: Test Example 5: herbicidal effect by foliage application, plastic box (Table 20, symbol G); format: in vivo, green foxtail (Setaria viridis); details: foliage application, 320 g/ha, three weeks after application
Procedure, shortened: as §1

[26] = test system: southern crabgrass; assay: Test Example 4: herbicidal effect by soil treatment (Table 19, symbol F); format: in vivo, southern crabgrass (Digitaria ciliaris); details: amount of applied herbicide 320 g/ha
Procedure, shortened: as §3

[27] = test system: lambsquarters; assay: Test Example 5: herbicidal effect by foliage application, plastic box (Table 20, symbol O); format: in vivo, lambsquarters (Chenopodium album); details: foliage application, 320 g/ha, three weeks after application
Procedure, shortened: as §1

[28] = test system: redroot pigweed; assay: Test Example 4: herbicidal effect by soil treatment (Table 19, symbol N); format: in vivo, redroot pigweed (Amaranthus retroflexus); details: amount of applied herbicide 320 g/ha
Procedure, shortened: as §3

[29] = test system: Chinese sprangletop; assay: Test Example 3: herbicidal effect by foliage application, Wagner pot (Table 18, symbol D); format: in vivo, chinese sprangletop (Leptochloa chinensis); details: 320 g/ha
Procedure, shortened: as §4

[30] = test system: chickweed; assay: Test Example 5: herbicidal effect by foliage application, plastic box (Table 20, symbol P); format: in vivo, common chickweed (Stellaria media); details: foliage application, 320 g/ha, three weeks after application
Procedure, shortened: as §1

[31] = test system: green foxtail; assay: Test Example 4: herbicidal effect by soil treatment (Table 19, symbol G); format: in vivo, green foxtail (Setaria viridis); details: amount of applied herbicide 320 g/ha
Procedure, shortened: as §3

[32] = test system: late watergrass; assay: Test Example 1: herbicidal activity, application before weed generation under submerged conditions (Table 16, symbol A); format: in vivo, late watergrass (Echinochloa oryzicola); details: 320 g/ha applied herbicide
Procedure, shortened: as §2

SMILES | herbicidal effect grade, K: Italian ryegrass [1] | herbicidal effect grade, F: southern crabgrass [2] | herbicidal effect grade, H: barnyard grass [3] | Herbicidal effect on C: oval-leafed pondweed (grade 0-5) [4] | herbicidal effect rating, I: wild oat [5] | herbicidal effect rating, J: blackgrass [6] | Herbicidal effect on B: Japanese bulrush (grade 0-5) [7] | herbicidal effect rating, R: persian speedwell [8] | herbicidal effect rating, O: lambsquarters [9] | herbicidal effect on H (barnyard grass), rating 0-5 [10] | herbicidal effect grade, N: redroot pigweed [11] | herbicidal effect rating, M: velvetleaf [12] | herbicidal effect grade, Q: false cleavers [13] | herbicidal effect grade, M: velvetleaf [14] | herbicidal effect grade, I: wild oat [15] | herbicidal effect rating, P: chickweed [16] | herbicidal effect rating, Q: false cleavers [17] | herbicidal effect rating, L: windgrass [18] | herbicidal effect grade, L: windgrass [19] | herbicidal effect rating, H: barnyard grass [20] | other results
CCCCCOc1ccc(-c2sc3ccccc3c2-c2c(OC(=O)CCC)c(C)nn(C)c2=O)cc1 [1-027] | 0 (Herbicidal rate of 5% or less (almost no effect)) | 0 (Herbicidal rate of 5% or less (almost no effect)) | 3 (Herbicidal rate of 40% or more and less than 70%) | 0 (Herbicidal rate of 5% or less (almost no effect)) | 0 (Herbicidal rate of 5% or less (almost no effect)) | 0 (Herbicidal rate of 5% or less (almost no effect)) | 2 (Herbicidal rate of 20% or more and less than 40%) | 2 (Herbicidal rate of 20% or more and less than 40%) | 0 (Herbicidal rate of 5% or less (almost no effect)) | 3 (Herbicidal rate of 40% or more and less than 70%) | 5 (Herbicidal rate of 90% or more (almost completely withered)) | 0 (Herbicidal rate of 5% or less (almost no effect)) | 3 (Herbicidal rate of 40% or more and less than 70%) | 3 (Herbicidal rate of 40% or more and less than 70%) | 0 (Herbicidal rate of 5% or less (almost no effect)) | 2 (Herbicidal rate of 20% or more and less than 40%) | 3 (Herbicidal rate of 40% or more and less than 70%) | 0 (Herbicidal rate of 5% or less (almost no effect)) | 0 (Herbicidal rate of 5% or less (almost no effect)) | 0 (Herbicidal rate of 5% or less (almost no effect)) | herbicidal effect grade, R: persian speedwell [21]: 4 (Herbicidal rate of 70% or more and less than 90%); herbicidal effect on E (rice flat sedge), rating 0-5 [22]: 1 (Herbicidal rate of 5% or more and less than 20%); herbicidal effect grade, J: blackgrass [23]: 0 (Herbicidal rate of 5% or less (almost no effect)); herbicidal effect rating, K: Italian ryegrass [24]: 0 (Herbicidal rate of 5% or less (almost no effect)); herbicidal effect grade, G: green foxtail [25]: 0 (Herbicidal rate of 5% or less (almost no effect)); herbicidal effect rating, F: southern crabgrass [26]: 0 (Herbicidal rate of 5% or less (almost no effect)); herbicidal effect grade, O: lambsquarters [27]: 3 (Herbicidal rate of 40% or more and less than 70%); herbicidal effect rating, N: redroot pigweed [28]: 0 (Herbicidal rate of 5% or less (almost no effect)); herbicidal effect on D (Chinese sprangletop), rating 0-5 [29]: 2 (Herbicidal rate of 20% or more and less than 40%); herbicidal effect grade, P: chickweed [30]: 5 (Herbicidal rate of 90% or more (almost completely withered)); herbicidal effect rating, G: green foxtail [31]: 0 (Herbicidal rate of 5% or less (almost no effect)); Herbicidal effect on A: late watergrass (grade 0-5) [32]: 0 (Herbicidal rate of 5% or less (almost no effect))
CCCCCCOc1ccc(-c2sc3ccccc3c2-c2c(O)c(C)nn(C)c2=O)cc1 [1-028] | 2 (Herbicidal rate of 20% or more and less than 40%) | 0 (Herbicidal rate of 5% or less (almost no effect)) | 0 (Herbicidal rate of 5% or less (almost no effect)) | 0 (Herbicidal rate of 5% or less (almost no effect)) | 0 (Herbicidal rate of 5% or less (almost no effect)) | 0 (Herbicidal rate of 5% or less (almost no effect)) | 2 (Herbicidal rate of 20% or more and less than 40%) | 0 (Herbicidal rate of 5% or less (almost no effect)) | 0 (Herbicidal rate of 5% or less (almost no effect)) | 3 (Herbicidal rate of 40% or more and less than 70%) | 5 (Herbicidal rate of 90% or more (almost completely withered)) | 0 (Herbicidal rate of 5% or less (almost no effect)) | 4 (Herbicidal rate of 70% or more and less than 90%) | 3 (Herbicidal rate of 40% or more and less than 70%) | 3 (Herbicidal rate of 40% or more and less than 70%) | 0 (Herbicidal rate of 5% or less (almost no effect)) | 0 (Herbicidal rate of 5% or less (almost no effect)) | 0 (Herbicidal rate of 5% or less (almost no effect)) | 3 (Herbicidal rate of 40% or more and less than 70%) | 0 (Herbicidal rate of 5% or less (almost no effect)) | herbicidal effect grade, R: persian speedwell [21]: 3 (Herbicidal rate of 40% or more and less than 70%); herbicidal effect on E (rice flat sedge), rating 0-5 [22]: 4 (Herbicidal rate of 70% or more and less than 90%); herbicidal effect grade, J: blackgrass [23]: 0 (Herbicidal rate of 5% or less (almost no effect)); herbicidal effect rating, K: Italian ryegrass [24]: 0 (Herbicidal rate of 5% or less (almost no effect)); herbicidal effect grade, G: green foxtail [25]: 4 (Herbicidal rate of 70% or more and less than 90%); herbicidal effect rating, F: southern crabgrass [26]: 0 (Herbicidal rate of 5% or less (almost no effect)); herbicidal effect grade, O: lambsquarters [27]: 3 (Herbicidal rate of 40% or more and less than 70%); herbicidal effect rating, N: redroot pigweed [28]: 2 (Herbicidal rate of 20% or more and less than 40%); herbicidal effect on D (Chinese sprangletop), rating 0-5 [29]: 0 (Herbicidal rate of 5% or less (almost no effect)); herbicidal effect grade, P: chickweed [30]: 5 (Herbicidal rate of 90% or more (almost completely withered)); herbicidal effect rating, G: green foxtail [31]: 0 (Herbicidal rate of 5% or less (almost no effect)); Herbicidal effect on A: late watergrass (grade 0-5) [32]: 1 (Herbicidal rate of 5% or more and less than 20%)
